Assays:
Experiment in all cases: relative viability (nuclei count vs DMSO), 5 days (fraction); higher = more cells survive
LXF-289 = test system: LXF-289
In short: (§1)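 Relative viability divides the nuclei count in treated wells by that in vehicle wells. Lung cancer cell lines were seeded in 1536-well plates, dosed by pin tool the next day, and fixed and stained after 5 days in one step with final 0.05% Triton X-100, 1% formaldehyde and 1 ug/ml Hoechst. Dosing was a single drug or a fixed anchor-drug dose plus five library-drug doses (not always all listed) in √10 steps, and values are medians of duplicate plates imaged at 4×.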

NCI-H1993 = test system: NCI-H1993
In short: as §1

NCI-H1975 = test system: NCI-H1975
In short: as §1

EMC-BAC-2 = test system: EMC-BAC-2
In short: as §1

NCI-H2023 = test system: NCI-H2023
In short: as §1

NCI-H322M = test system: NCI-H322M
In short: as §1

HCC-78 = test system: HCC-78
In short: as §1

NCI-H1666 = test system: NCI-H1666
In short: as §1

NCI-H2085 = test system: NCI-H2085
In short: as §1

HCC-15 = test system: HCC-15
In short: as §1

HOP-62 = test system: HOP-62
In short: as §1

CAL-12T = test system: CAL-12T
In short: as §1

NCI-H3122 = test system: NCI-H3122
In short: as §1

COR-L 105 = test system: COR-L 105
In short: as §1

ABC-1 = test system: ABC-1
In short: as §1

NCI-H1755 = test system: NCI-H1755
In short: as §1

EPLC-272H = test system: EPLC-272H
In short: as §1

NCI-H1915 = test system: NCI-H1915
In short: as §1

ChaGo-K-1 = test system: ChaGo-K-1
In short: as §1

NCI-H441 = test system: NCI-H441
In short: as §1

NCI-H2126 = test system: NCI-H2126
In short: as §1

UMC-11 = test system: UMC-11
In short: as §1

`Clc1ccc(Nc2nnc(Cc3ccncc3)c3ccccc23)cc1` [Vatalanib] + CC(C)C[C@H](NC(=O)[C@H](Cc1ccccc1)NC(=O)c1cnccn1)B(O)O [Bortezomib] (partner 0.002 µM) was tested, and the relative viability (LXF-289; first compound 0.04 µM) was 1.07, the relative viability (LXF-289; first compound 0.1265 µM) was 0.976 and the relative viability (LXF-289; first compound 0.4 µM) was 0.991. It also gave a relative viability (LXF-289; first compound 1.265 µM) of 0.931, a relative viability (LXF-289; first compound 4 µM) of 0.964 and a relative viability (NCI-H1993; first compound 0.04 µM) of 1.11. For the same compound, the relative viability (NCI-H1993; first compound 0.1265 µM) was 1.05, the relative viability (NCI-H1993; first compound 0.4 µM) was 1.02 and the relative viability (NCI-H1993; first compound 1.265 µM) was 1.01. For the same compound, the relative viability (NCI-H1993; first compound 4 µM) was 0.869, the relative viability (NCI-H1975; first compound 0.04 µM) was 0.407 and the relative viability (NCI-H1975; first compound 0.1265 µM) was 0.352. It also gave a relative viability (NCI-H1975; first compound 0.4 µM) of 0.422, a relative viability (NCI-H1975; first compound 1.265 µM) of 0.374 and a relative viability (NCI-H1975; first compound 4 µM) of 0.379. For the same compound, the relative viability (EMC-BAC-2; first compound 0.04 µM) was 1.04, the relative viability (EMC-BAC-2; first compound 0.1265 µM) was 1.09 and the relative viability (EMC-BAC-2; first compound 0.4 µM) was 1.12. For the same compound, the relative viability (EMC-BAC-2; first compound 1.265 µM) was 1.01, the relative viability (EMC-BAC-2; first compound 4 µM) was 1.05 and the relative viability (NCI-H2023; first compound 0.04 µM) was 1.02. The relative viability (NCI-H2023; first compound 0.1265 µM) was 0.837, the relative viability (NCI-H2023; first compound 0.4 µM) was 1.02 and the relative viability (NCI-H2023; first compound 1.265 µM) was 0.946. The relative viability (NCI-H2023; first compound 4 µM) was 0.695, the relative viability (NCI-H322M; first compound 0.04 µM) was 1.19 and the relative viability (NCI-H322M; first compound 0.1265 µM) was 1.31. It also gave a relative viability (NCI-H322M; first compound 0.4 µM) of 1.33, a relative viability (NCI-H322M; first compound 1.265 µM) of 1.28 and a relative viability (NCI-H322M; first compound 4 µM) of 1.08. It also gave a relative viability (HCC-78; first compound 0.04 µM) of 0.391, a relative viability (HCC-78; first compound 0.1265 µM) of 0.493 and a relative viability (HCC-78; first compound 0.4 µM) of 0.474. For the same compound, the relative viability (HCC-78; first compound 1.265 µM) was 0.495, the relative viability (HCC-78; first compound 4 µM) was 0.571 and the relative viability (NCI-H1666; first compound 0.04 µM) was 0.795. The relative viability (NCI-H1666; first compound 0.1265 µM) was 0.701, the relative viability (NCI-H1666; first compound 0.4 µM) was 0.851 and the relative viability (NCI-H1666; first compound 1.265 µM) was 0.67. For the same compound, the relative viability (NCI-H1666; first compound 4 µM) was 0.733, the relative viability (NCI-H2085; first compound 0.04 µM) was 1.07 and the relative viability (NCI-H2085; first compound 0.1265 µM) was 0.952. It also gave a relative viability (NCI-H2085; first compound 0.4 µM) of 1.08, a relative viability (NCI-H2085; first compound 1.265 µM) of 0.995 and a relative viability (NCI-H2085; first compound 4 µM) of 0.947. It also gave a relative viability (HCC-15; first compound 0.04 µM) of 1.15, a relative viability (HCC-15; first compound 0.1265 µM) of 1.03 and a relative viability (HCC-15; first compound 0.4 µM) of 1.03. For the same compound, the relative viability (HCC-15; first compound 1.265 µM) was 0.978, the relative viability (HCC-15; first compound 4 µM) was 1.04 and the relative viability (HOP-62; first compound 0.04 µM) was 0.977. The relative viability (HOP-62; first compound 0.4 µM) was 0.857, the relative viability (HOP-62; first compound 1.265 µM) was 0.849 and the relative viability (HOP-62; first compound 4 µM) was 1.09. For the same compound, the relative viability (CAL-12T; first compound 0.04 µM) was 0.933, the relative viability (CAL-12T; first compound 0.1265 µM) was 0.774 and the relative viability (CAL-12T; first compound 1.265 µM) was 0.988. The relative viability (CAL-12T; first compound 4 µM) was 1.05, the relative viability (NCI-H3122; first compound 0.04 µM) was 1.01 and the relative viability (NCI-H3122; first compound 0.1265 µM) was 1.06. It also gave a relative viability (NCI-H3122; first compound 0.4 µM) of 1.08, a relative viability (NCI-H3122; first compound 1.265 µM) of 1.07 and a relative viability (NCI-H3122; first compound 4 µM) of 1.01. For the same compound, the relative viability (COR-L 105; first compound 0.04 µM) was 0.941, the relative viability (COR-L 105; first compound 0.1265 µM) was 0.783 and the relative viability (COR-L 105; first compound 0.4 µM) was 0.931. It also gave a relative viability (COR-L 105; first compound 1.265 µM) of 0.713, a relative viability (COR-L 105; first compound 4 µM) of 0.651 and a relative viability (ABC-1; first compound 0.04 µM) of 0.334. It also gave a relative viability (ABC-1; first compound 0.1265 µM) of 0.243, a relative viability (ABC-1; first compound 0.4 µM) of 0.348 and a relative viability (ABC-1; first compound 1.265 µM) of 0.357. The relative viability (ABC-1; first compound 4 µM) was 0.351, the relative viability (NCI-H1755; first compound 0.04 µM) was 0.938 and the relative viability (NCI-H1755; first compound 0.1265 µM) was 0.926. It also gave a relative viability (NCI-H1755; first compound 0.4 µM) of 0.992, a relative viability (NCI-H1755; first compound 1.265 µM) of 0.88 and a relative viability (NCI-H1755; first compound 4 µM) of 0.974. It also gave a relative viability (EPLC-272H; first compound 0.04 µM) of 1.08, a relative viability (EPLC-272H; first compound 0.1265 µM) of 0.93 and a relative viability (EPLC-272H; first compound 0.4 µM) of 0.843. For the same compound, the relative viability (EPLC-272H; first compound 1.265 µM) was 0.971, the relative viability (EPLC-272H; first compound 4 µM) was 0.982 and the relative viability (NCI-H1915; first compound 0.04 µM) was 0.949. For the same compound, the relative viability (NCI-H1915; first compound 0.1265 µM) was 0.923, the relative viability (NCI-H1915; first compound 0.4 µM) was 0.993 and the relative viability (NCI-H1915; first compound 1.265 µM) was 0.936. The relative viability (NCI-H1915; first compound 4 µM) was 0.987, the relative viability (ChaGo-K-1; first compound 0.04 µM) was 0.936 and the relative viability (ChaGo-K-1; first compound 0.1265 µM) was 0.938. The relative viability (ChaGo-K-1; first compound 1.265 µM) was 0.991, the relative viability (ChaGo-K-1; first compound 4 µM) was 1.03 and the relative viability (NCI-H441; first compound 0.04 µM) was 0.421. The relative viability (NCI-H441; first compound 0.1265 µM) was 0.444, the relative viability (NCI-H441; first compound 0.4 µM) was 0.52 and the relative viability (NCI-H441; first compound 1.265 µM) was 0.448. It also gave a relative viability (NCI-H441; first compound 4 µM) of 0.448, a relative viability (NCI-H2126; first compound 0.04 µM) of 1.06 and a relative viability (NCI-H2126; first compound 0.1265 µM) of 1.14. The relative viability (NCI-H2126; first compound 0.4 µM) was 1.17, the relative viability (NCI-H2126; first compound 1.265 µM) was 1.1 and the relative viability (NCI-H2126; first compound 4 µM) was 1.13. For the same compound, the relative viability (UMC-11; first compound 0.04 µM) was 0.802, the relative viability (UMC-11; first compound 0.1265 µM) was 0.771 and the relative viability (UMC-11; first compound 0.4 µM) was 0.709. The relative viability (UMC-11; first compound 1.265 µM) was 0.717 and the relative viability (UMC-11; first compound 4 µM) was 0.688.
